Data from PubChem BioAssay AID180 (DTP/NCI, 2004).
“And” between values parts separate entries of the source, which are not always exact repeats. Equal values may be shown once.

System: BDF1 mice, Adenocarcinoma 755 s.c., tumor weight T/C
Experiment: NCI In Vivo Anticancer Drug Screen. Data for tumor model Adenocarcinoma 755 (subcutaneous) in B6D2F1 (BDF1) mice
Settings: endpoint: mean tumor weight, higher = larger tumour
How it was run: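 Readout: T/C, i.e. treated-group measurement over vehicle-control measurement. Endpoint is survival or tumor size in tumor-bearing mice given compound.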

[1] = dose: 25.0 mg/kg/injection, schedule: Q01DX011 (ip), vehicle: methylcellulose (MC)
[2] = dose: 75.0 mg/kg/injection, schedule: Q01DX011 (ip), vehicle: methylcellulose (MC)
[3] = dose: 150.0 mg/kg/injection, schedule: Q01DX011 (ip), vehicle: methylcellulose (MC)

SMILES: CCOC(O)C(F)(F)F (stereo not drawn)
- T/C (dose: 22.0 mg/kg/injection, schedule: Q01DX011 (ip), vehicle: methylcellulose (MC)): 110 % of control
- T/C (dose: 25.0 mg/kg/injection, schedule: Q01DX011 (ip), vehicle: carboxymethylcellulose (CMC)): 83 % of control
- T/C (dose: 44.0 mg/kg/injection, schedule: Q01DX011 (ip), vehicle: methylcellulose (MC)): 78 % of control
- T/C (dose: 50.0 mg/kg/injection, schedule: Q01DX011 (ip), vehicle: carboxymethylcellulose (CMC)): 50 % of control
- T/C (dose: 88.0 mg/kg/injection, schedule: Q01DX011 (ip), vehicle: methylcellulose (MC)): 30 % of control
- T/C (dose: 100.0 mg/kg/injection, schedule: Q01DX011 (ip), vehicle: carboxymethylcellulose (CMC)): 32 % of control

SMILES: C=C(C)C(=O)OCC1CO1 (stereo not drawn)
- T/C (dose: 100.0 mg/kg/injection, schedule: Q01DX011 (ip), vehicle: water): 90 % of control
- T/C (dose: 200.0 mg/kg/injection, schedule: Q01DX006 (ip), vehicle: water): 95 % of control
- T/C (dose: 200.0 mg/kg/injection, schedule: Q01DX011 (ip), vehicle: other): 102 % of control
- T/C (dose: 200.0 mg/kg/injection, schedule: Q01DX011 (ip), vehicle: water): 77 % of control
- T/C (dose: 300.0 mg/kg/injection, schedule: Q01DX006 (ip), vehicle: water): 86 % of control

SMILES: O=[N+]([O-])c1ccc2ncccc2c1
- T/C (dose: 31.2 mg/kg/injection, schedule: Q01DX011 (ip), vehicle: other): 83 % of control
- T/C (dose: 62.5 mg/kg/injection, schedule: Q01DX011 (ip), vehicle: other): 52 % of control

SMILES: Cn1c(=O)c2c(ncn2CCCO)n(C)c1=O
- T/C (dose: 75.0 mg/kg/injection, schedule: Q01DX011 (ip), vehicle: carboxymethylcellulose (CMC)): 61 % of control
- T/C (dose: 225.0 mg/kg/injection, schedule: Q01DX011 (ip), vehicle: carboxymethylcellulose (CMC)): 65 % of control

SMILES: Nc1nc(NCc2ccccc2)cc(=O)[nH]1
- T/C (dose: 55.0 mg/kg/injection, schedule: Q01DX011 (ip), vehicle: methylcellulose (MC)): 66 % of control
- T/C (dose: 165.0 mg/kg/injection, schedule: Q01DX011 (ip), vehicle: methylcellulose (MC)): 49 % of control

SMILES: CN(C)[C@@H]1C(=O)C(C(=O)NCNC2(C(=O)O)CCCC2)=C(O)[C@@]2(O)C(=O)C3=C(O)c4c(O)cccc4[C@@](C)(O)[C@H]3C[C@@H]12
- T/C (dose: 50.0 mg/kg/injection, schedule: Q01DX011 (ip), vehicle: saline): 77 % of control
- T/C (dose: 75.0 mg/kg/injection, schedule: Q01DX011 (ip), vehicle: saline): 65 % of control
- T/C (dose: 125.0 mg/kg/injection, schedule: Q01DX011 (ip), vehicle: saline): 41 % of control
- T/C (dose: 250.0 mg/kg/injection, schedule: Q01DX011 (ip), vehicle: saline): 1 % of control

SMILES: Cc1ccc2ccccc2c1CSc1nc(N)nc2c1ncn2CC(C)C
- T/C [1]: 115 % of control
- T/C [2]: 80 % of control
- T/C (dose: 225.0 mg/kg/injection, schedule: Q01DX011 (ip), vehicle: methylcellulose (MC)): 97 % of control

SMILES: Nc1nc(SC2CCCCC2)c2[nH]cnc2n1
- T/C (dose: 1.0 mg/kg/injection, schedule: Q01DX011 (ip), vehicle: carboxymethylcellulose (CMC)): 60 % of control
- T/C (dose: 5.0 mg/kg/injection, schedule: Q01DX011 (ip), vehicle: carboxymethylcellulose (CMC)): 83 % of control
- T/C (dose: 20.0 mg/kg/injection, schedule: Q01DX011 (ip), vehicle: carboxymethylcellulose (CMC)): 4 % of control and 9 % of control
- T/C (dose: 40.0 mg/kg/injection, schedule: Q01DX011 (ip), vehicle: carboxymethylcellulose (CMC)): 1 % of control
- T/C (dose: 80.0 mg/kg/injection, schedule: Q01DX011 (ip), vehicle: carboxymethylcellulose (CMC)): 1 % of control
- T/C (dose: 160.0 mg/kg/injection, schedule: Q01DX011 (ip), vehicle: carboxymethylcellulose (CMC)): 2 % of control

SMILES: CCOC(=O)/C(C)=N\Nc1cc(Cl)nc(N)n1
- T/C (dose: 112.0 mg/kg/injection, schedule: Q01DX011 (ip), vehicle: methylcellulose (MC)): 200 % of control

SMILES: CSc1nc(N)nc2c1ncn2Cc1ccccc1
- T/C [2]: 74 % of control
- T/C [3]: 53 % of control
- T/C (dose: 300.0 mg/kg/injection, schedule: Q01DX011 (ip), vehicle: methylcellulose (MC)): 64 % of control

SMILES: O=c1[nH]cnc2n[nH]nc12
- T/C (dose: 125.0 mg/kg/injection, schedule: Q01DX011 (oral), vehicle: methylcellulose (MC)): 55 % of control
- T/C (dose: 250.0 mg/kg/injection, schedule: Q02DX006 (ip), vehicle: methylcellulose (MC)): 5 % of control
- T/C (dose: 250.0 mg/kg/injection, schedule: Q03DX004 (ip), vehicle: methylcellulose (MC)): 21 % of control

SMILES: CS(=O)(=O)OCCC(=O)Nc1ccc(NC(=O)CCOS(C)(=O)=O)cc1
- T/C (dose: 46.0 mg/kg/injection, schedule: Q01DX011 (ip), vehicle: methylcellulose (MC)): 117 % of control
- T/C (dose: 91.0 mg/kg/injection, schedule: Q01DX011 (ip), vehicle: methylcellulose (MC)): 111 % of control
- T/C (dose: 183.0 mg/kg/injection, schedule: Q01DX011 (ip), vehicle: methylcellulose (MC)): 85 % of control
- T/C (dose: 375.0 mg/kg/injection, schedule: Q01DX011 (ip), vehicle: methylcellulose (MC)): 117 % of control

SMILES: CCOC(=O)C(N)Cc1ccc(N(CCCl)CCCl)cc1 (stereo not drawn)
- T/C (dose: 0.5 mg/kg/injection, schedule: Q01DX011 (ip), vehicle: carboxymethylcellulose (CMC)): 92 % of control
- T/C (dose: 0.5 mg/kg/injection, schedule: Q01DX011 (ip), vehicle: saline): 82 % of control
- T/C (dose: 1.1 mg/kg/injection, schedule: Q01DX011 (ip), vehicle: carboxymethylcellulose (CMC)): 77 % of control
- T/C (dose: 1.1 mg/kg/injection, schedule: Q01DX011 (ip), vehicle: saline): 40 % of control
- T/C (dose: 2.2 mg/kg/injection, schedule: Q01DX011 (ip), vehicle: carboxymethylcellulose (CMC)): 91 % of control
- T/C (dose: 2.2 mg/kg/injection, schedule: Q01DX011 (ip), vehicle: saline): 9 % of control
- T/C (dose: 4.5 mg/kg/injection, schedule: Q01DX011 (ip), vehicle: carboxymethylcellulose (CMC)): 78 % of control
- T/C (dose: 4.5 mg/kg/injection, schedule: Q01DX011 (ip), vehicle: saline): 1 % of control
- T/C (dose: 9.0 mg/kg/injection, schedule: Q01DX011 (ip), vehicle: carboxymethylcellulose (CMC)): 69 % of control

SMILES: CSc1nc(N)nc2c1ncn2C1OC(CO)C(O)C1O (stereo not drawn)
- T/C (dose: 8.2 mg/kg/injection, schedule: Q01DX011 (ip), vehicle: carboxymethylcellulose (CMC)): 82 % of control
- T/C (dose: 16.5 mg/kg/injection, schedule: Q01DX011 (ip), vehicle: carboxymethylcellulose (CMC)): 53 % of control
- T/C (dose: 33.0 mg/kg/injection, schedule: Q01DX011 (ip), vehicle: carboxymethylcellulose (CMC)): 20 % of control
- T/C (dose: 66.0 mg/kg/injection, schedule: Q01DX011 (ip), vehicle: carboxymethylcellulose (CMC)): 9 % of control
- T/C (dose: 66.25 mg/kg/injection, schedule: Q01DX011 (ip), vehicle: methylcellulose (MC)): 9 % of control
- T/C (dose: 112.5 mg/kg/injection, schedule: Q01DX011 (ip), vehicle: methylcellulose (MC)): 4 % of control

SMILES: Cc1ccc(N=Nc2c(S(=O)(=O)O)cc3cc(NC(=O)Nc4ccc5c(O)c(N=Nc6ccc7cc(S(=O)(=O)O)ccc7c6)c(S(=O)(=O)O)cc5c4)ccc3c2O)cc1
- T/C (dose: 45.0 mg/kg/injection, schedule: Q01DX011 (ip), vehicle: methylcellulose (MC)): 66 % of control
- T/C (dose: 65.0 mg/kg/injection, schedule: Q01DX011 (ip), vehicle: methylcellulose (MC)): 42 % of control
- T/C [3]: 30 % of control

SMILES: Nc1ncc2[nH]c(N)nc2n1
- T/C [1]: 58 % of control
- T/C [2]: 73 % of control

SMILES: Nc1nc(SCc2ccccc2F)c2ncn(C3OC(CO)C(O)C3O)c2n1 (stereo not drawn)
- T/C (dose: 1.5 mg/kg/injection, schedule: Q01DX011 (ip), vehicle: methylcellulose (MC)): 106 % of control
- T/C (dose: 3.1 mg/kg/injection, schedule: Q01DX011 (ip), vehicle: methylcellulose (MC)): 41 % of control
- T/C (dose: 6.2 mg/kg/injection, schedule: Q01DX011 (ip), vehicle: methylcellulose (MC)): 7 % of control and 14 % of control
- T/C (dose: 12.5 mg/kg/injection, schedule: Q01DX011 (ip), vehicle: methylcellulose (MC)): 1 % of control
- T/C [1]: 5 % of control

SMILES: Nc1nnnc2nc[nH]c12
- T/C (dose: 12.5 mg/kg/injection, schedule: Q01DX011 (ip), vehicle: carboxymethylcellulose (CMC)): 75 % of control

SMILES: On1cnc(=S)c2[nH]cnc21
- T/C (dose: 125.0 mg/kg/injection, schedule: Q01DX011 (ip), vehicle: carboxymethylcellulose (CMC)): 5 % of control

SMILES: CCC(C)Cn1cnc2c(SCC(=O)O)nc(N)nc21 (stereo not drawn)
- T/C [1]: 78 % of control
- T/C (dose: 80.0 mg/kg/injection, schedule: Q01DX011 (ip), vehicle: methylcellulose (MC)): 43 % of control
- T/C (dose: 250.0 mg/kg/injection, schedule: Q01DX011 (ip), vehicle: methylcellulose (MC)): 45 % of control

SMILES: CC(C)CSc1nc(N)nc2c1ncn2C1OC(CO)C(O)C1O (stereo not drawn)
- T/C (dose: 2.32 mg/kg/injection, schedule: Q01DX011 (ip), vehicle: methylcellulose (MC)): 54 % of control
- T/C (dose: 4.65 mg/kg/injection, schedule: Q01DX011 (ip), vehicle: methylcellulose (MC)): 37 % of control
- T/C (dose: 9.3 mg/kg/injection, schedule: Q01DX011 (ip), vehicle: methylcellulose (MC)): 25 % of control
- T/C (dose: 18.75 mg/kg/injection, schedule: Q01DX011 (ip), vehicle: methylcellulose (MC)): 12 % of control and 15 % of control
- T/C (dose: 37.5 mg/kg/injection, schedule: Q01DX011 (ip), vehicle: methylcellulose (MC)): 3 % of control
- T/C [2]: 2 % of control
- T/C [3]: 2 % of control
